Values of other authors, collected in US10296863B2, “Wireless sensor devices for post-harvest crop quality and pest management” (priority 2017, dated 2019).
Like-named read-outs stand apart in the source and are kept apart here.

Experiments:
[1] = test system: tobacco moth and susceptible cigarette beetle
[2] = test system: resistant cigarette beetle
[3] = tobacco temperature 16-20 °C (61-68 °F), 300 ppm phosphine at the bale/case centre

## P [phosphine]
[1]; [3]
  Minimum Exposure Time to achieve 100% control: 6 days
[1]; tobacco temperature >20 °C (>68 °F), 200 ppm phosphine at the bale/case centre
  Minimum Exposure Time to achieve 100% control: 4 days
[2]; [3]
  Minimum Exposure Time to achieve 100% control: 12 days
[2]; tobacco temperature 20-25 °C (68-77 °F), 300 ppm phosphine at the bale/case centre
  Minimum Exposure Time to achieve 100% control: 12 days
[2]; tobacco temperature 20-25 °C (68-77 °F), 700 ppm phosphine at the bale/case centre
  Minimum Exposure Time to achieve 100% control: 10 days
[2]; tobacco temperature >25 °C (>77 °F), 300 ppm phosphine at the bale/case centre
  Minimum Exposure Time to achieve 100% control: 12 days
[2]; tobacco temperature >25 °C (>77 °F), 600 ppm phosphine at the bale/case centre
  Minimum Exposure Time to achieve 100% control: 6 days
